Test results as given in patent publication EP4745135A1 (Gluetacs Therapeutics (Shanghai) Co., Ltd., priority 2023, dated 2025).

What was measured:
[1] = test system: Human acute T lymphocytic leukemia cell (Molt4); experiment: Tumor cell proliferation inhibition (CellTiter-Meiluncell luminescent cell viability assay); details: MOLT-4, 96 h; for inhibition at 0.01 µM: read-out: Inhibition Rate at 10 nM (%); for inhibition at 0.5 µM: read-out: Inhibition Rate at 500 nM (%)
Method: (§1) The tumor cells used herein were cultured in a cell culture medium listed in table 2 at 37°C in an incubator with 5% CO2. Prior to experimentation, all cell lines used were correctly identified by STR profiling, and tested negative for mycoplasma contamination using a mycoplasma detection kit through routine screenings.
(§2) The IC50 values of the compounds of the present disclosure (including the compounds in Table 1 and Examples) were determined using the CellTiter-Meiluncell Luminescent Cell Viability Assay Kit from Dalian Meilun Biotech Co., Ltd. The detailed procedure is as follows: Tumor cells were seeded in 96-well cell culture plates at the densities specified in Table 3. On the following day, the test compounds of the present disclosure were subjected to serial dilution. The dilution can be performed according to one of the following two methods: • (1) The first dilution method: The test compounds of the present disclosure (including the compounds in Table 1 and Examples) were subjected to 5-fold serial dilutions starting from a highest concentration of 2000 µM, resulting in a total of 9 concentrations from high to low (2000, 400, 80, 16, 3.2, 0.64, 0.128, 0.0256, 0.00512 µM). Subsequently, 0.5 µL of the test compound dilution was transferred into the 96-well plate containing the cells, with each well containing 100 µL of cell culture medium. […] Into the 96-well plate, the diluted test compounds and corresponding detection reagents were added, resulting in final test compound concentrations of 500 nM and 10 nM, respectively. The experimental procedure is described below using the diluted 2 µM test compound as an example.
(§3) 0.5 µL of the aforementioned diluted compound of the present disclosure (including the compounds in Table 1 and Examples) was added to the seeded cells in 100 µL of medium, yielding a final test compound concentration of 10 nM. After the cells were treated with the compounds of the present disclosure for a specified period, the cell viability assay reagent was added to the culture medium according to the kit's instructions to determine cell viability. […] All controls were treated using the same procedure as the compounds of the present disclosure. The growth inhibition curves for the compounds of the present disclosure were plotted using Prism GraphPad software, and the IC50 values were calculated therefrom.

[2] = test system: Human myeloid monocytic leukemia cell (MV-4-11); experiment: as above; details: MV4-11, 96 h; for inhibition at 0.01 µM: read-out: Inhibition Rate at 10 nM (%); for inhibition at 0.5 µM: read-out: Inhibition Rate at 500 nM (%)
GSPT1 = experiment: Western blot, degradation of substrate protein in hPBMCs; assay type: cell-based, Human
[3] = test system: Human acute myeloid leukemia cell line: Kasumi-1; experiment: Tumor cell proliferation inhibition (CellTiter-Meiluncell luminescent cell viability assay); details: Kasumi 1, 96 h; for inhibition at 0.01 µM: read-out: Inhibition Rate at 10 nM (%); for inhibition at 0.5 µM: read-out: Inhibition Rate at 500 nM (%)
[4] = test system: Human T lymphocytic leukemia cell line: Jurkat; experiment: as above; details: 96 h; for inhibition at 0.01 µM: read-out: Inhibition Rate at 10 nM (%); for inhibition at 0.5 µM: read-out: Inhibition Rate at 500 nM (%)
Method: as §1, §2, §3

[5] = test system: Human T cell acute lymphoblastic leukemia cell (CCRF-CEM); experiment: as above; details: 96 h; for inhibition at 0.01 µM: read-out: Inhibition Rate at 10 nM (%); for inhibition at 0.5 µM: read-out: Inhibition Rate at 500 nM (%)
[6] = target: T1, human Cereblon WT GST-tagged protein (Homo sapiens, UniProt Q96SW2); experiment: CRBN-binding affinity, HTRF (CEREBLON BINDING kit); details: for inhibition at 0.5 µM: read-out: Inhibition Rate at 0.5 µM (%); for inhibition at 2 µM: read-out: Inhibition Rate at 2 µM (%)
T1 construct: purchased CISBIO 64BDCRBNPEH

IKZF1 = target: T2, IKZF1 (Homo sapiens, UniProt Q13422+Q96SW2); experiment: Western blot, degradation of substrate protein in hPBMCs; assay type: cell-based
T2 construct: effects of the compounds of the present disclosure on the expression of target proteins in cells; endogenous in cells; host or cells: human PBMCs (Milecell Biotechnologies)

WEE1 = target: T3, WEE1 (Homo sapiens, UniProt P30291+Q96SW2); experiment: as above; assay type: cell-based
T3 construct: effects of the compounds of the present disclosure on the expression of target proteins in cells; endogenous in cells; host or cells: human PBMCs (Milecell Biotechnologies)

IKZF3 = target: T4, IKZF3 (Homo sapiens, UniProt Q96SW2+Q9UKT9); experiment: as above; assay type: cell-based
T4 construct: effects of the compounds of the present disclosure on the expression of target proteins in cells; endogenous in cells; host or cells: human PBMCs (Milecell Biotechnologies)

CK1α = target: T5, CK1α (Homo sapiens, UniProt P48729+Q96SW2); experiment: as above; assay type: cell-based
T5 construct: effects of the compounds of the present disclosure on the expression of target proteins in cells; endogenous in cells; host or cells: human PBMCs (Milecell Biotechnologies)

IKZF2 = target: T6, IKZF2 (Homo sapiens, UniProt Q96SW2+Q9UKS7); experiment: as above; assay type: cell-based
T6 construct: effects of the compounds of the present disclosure on the expression of target proteins in cells; endogenous in cells; host or cells: human PBMCs (Milecell Biotechnologies)

[7] = test system: Human multiple myeloma cell (MM.1S); experiment: Tumor cell proliferation inhibition (CellTiter-Meiluncell luminescent cell viability assay); details: for inhibition at 0.01 µM / inhibition at 0.5 µM: Homo sapiens, MM1.S, 96 h; for inhibition at 0.01 µM: read-out: Inhibition Rate at 10 nM (%); for inhibition at 0.5 µM: read-out: Inhibition Rate at 500 nM (%)
[8] = Western blot, 24 hours of compound treatment, compounds tested at 50 nM and 500 nM (concentration for the table not stated)
[9] = 24 hours treatment, compounds at 50 nM and 500 nM (concentration behind the class not stated)

T4 sequence (Q9UKT9 whole entry): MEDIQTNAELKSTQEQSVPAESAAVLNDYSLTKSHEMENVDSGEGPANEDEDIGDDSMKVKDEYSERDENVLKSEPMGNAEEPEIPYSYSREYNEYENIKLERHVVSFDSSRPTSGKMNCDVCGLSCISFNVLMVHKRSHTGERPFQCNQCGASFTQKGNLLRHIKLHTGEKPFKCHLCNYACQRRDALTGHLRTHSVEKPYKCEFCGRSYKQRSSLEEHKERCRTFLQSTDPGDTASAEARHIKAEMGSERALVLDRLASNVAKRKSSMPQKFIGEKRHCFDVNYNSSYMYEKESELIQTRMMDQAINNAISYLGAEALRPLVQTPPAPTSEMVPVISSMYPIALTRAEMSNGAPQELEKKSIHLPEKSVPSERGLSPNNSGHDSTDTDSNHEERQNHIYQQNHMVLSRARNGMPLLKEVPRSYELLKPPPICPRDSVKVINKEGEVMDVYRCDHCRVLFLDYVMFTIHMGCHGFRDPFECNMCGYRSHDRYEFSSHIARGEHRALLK
T4 sequence (Q96SW2 whole entry): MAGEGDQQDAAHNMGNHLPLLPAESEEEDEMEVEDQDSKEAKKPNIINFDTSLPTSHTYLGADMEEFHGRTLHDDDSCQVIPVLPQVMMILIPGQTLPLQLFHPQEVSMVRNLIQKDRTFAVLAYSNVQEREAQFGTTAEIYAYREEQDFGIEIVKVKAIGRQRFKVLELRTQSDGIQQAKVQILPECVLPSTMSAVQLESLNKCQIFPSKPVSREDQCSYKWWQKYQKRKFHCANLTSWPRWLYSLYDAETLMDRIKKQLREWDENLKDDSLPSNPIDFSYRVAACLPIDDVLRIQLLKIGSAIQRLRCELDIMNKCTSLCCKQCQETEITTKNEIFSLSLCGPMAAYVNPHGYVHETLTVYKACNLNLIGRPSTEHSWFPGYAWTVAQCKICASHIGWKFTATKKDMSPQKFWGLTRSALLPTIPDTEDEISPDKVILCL
T4 sequence (Q16531 whole entry partner): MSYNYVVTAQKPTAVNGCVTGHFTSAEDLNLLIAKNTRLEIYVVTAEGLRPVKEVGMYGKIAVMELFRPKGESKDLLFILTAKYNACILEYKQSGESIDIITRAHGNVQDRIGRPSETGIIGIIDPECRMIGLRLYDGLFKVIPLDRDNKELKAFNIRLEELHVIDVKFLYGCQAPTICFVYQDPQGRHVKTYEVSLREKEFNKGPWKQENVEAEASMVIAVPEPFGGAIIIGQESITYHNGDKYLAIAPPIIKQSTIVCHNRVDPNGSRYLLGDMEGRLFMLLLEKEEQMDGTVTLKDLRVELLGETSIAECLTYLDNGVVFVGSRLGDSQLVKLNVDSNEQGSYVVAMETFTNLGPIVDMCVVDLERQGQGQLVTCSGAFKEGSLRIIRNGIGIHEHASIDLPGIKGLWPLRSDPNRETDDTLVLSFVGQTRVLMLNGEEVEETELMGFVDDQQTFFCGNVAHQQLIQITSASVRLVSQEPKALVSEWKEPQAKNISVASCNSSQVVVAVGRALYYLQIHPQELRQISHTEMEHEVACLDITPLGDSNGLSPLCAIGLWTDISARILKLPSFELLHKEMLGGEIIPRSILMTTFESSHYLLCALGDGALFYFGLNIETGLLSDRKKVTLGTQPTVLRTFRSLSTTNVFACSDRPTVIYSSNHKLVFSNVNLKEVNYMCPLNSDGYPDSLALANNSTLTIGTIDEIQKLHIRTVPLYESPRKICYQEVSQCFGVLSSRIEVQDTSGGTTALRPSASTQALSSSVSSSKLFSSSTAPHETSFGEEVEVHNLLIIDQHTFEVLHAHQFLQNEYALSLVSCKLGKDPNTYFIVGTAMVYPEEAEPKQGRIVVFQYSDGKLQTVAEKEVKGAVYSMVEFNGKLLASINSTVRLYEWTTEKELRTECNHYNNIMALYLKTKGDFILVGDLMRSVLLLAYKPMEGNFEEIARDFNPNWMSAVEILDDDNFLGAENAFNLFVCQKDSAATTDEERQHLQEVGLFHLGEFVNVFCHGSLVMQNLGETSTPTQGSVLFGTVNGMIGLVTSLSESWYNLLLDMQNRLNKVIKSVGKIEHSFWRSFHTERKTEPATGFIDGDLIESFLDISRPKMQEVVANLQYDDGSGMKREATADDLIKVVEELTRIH
T2 sequence (Q13422 whole entry): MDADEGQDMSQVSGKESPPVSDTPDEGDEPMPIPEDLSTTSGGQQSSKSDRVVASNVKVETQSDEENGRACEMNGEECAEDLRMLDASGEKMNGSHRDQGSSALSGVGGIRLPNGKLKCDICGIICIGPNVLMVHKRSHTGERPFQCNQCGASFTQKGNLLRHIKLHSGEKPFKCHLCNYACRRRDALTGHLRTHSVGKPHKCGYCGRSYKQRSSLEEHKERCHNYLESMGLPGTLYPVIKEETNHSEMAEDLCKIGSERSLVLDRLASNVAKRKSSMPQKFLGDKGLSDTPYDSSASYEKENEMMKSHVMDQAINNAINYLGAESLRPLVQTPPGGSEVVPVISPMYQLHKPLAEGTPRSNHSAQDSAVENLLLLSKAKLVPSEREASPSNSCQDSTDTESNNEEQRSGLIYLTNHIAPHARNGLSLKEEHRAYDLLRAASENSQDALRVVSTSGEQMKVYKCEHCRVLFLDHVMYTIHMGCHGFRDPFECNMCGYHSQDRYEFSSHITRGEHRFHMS
T2 sequence (Q96SW2 whole entry): as the sequence (Q96SW2 whole entry) above
T2 sequence (Q16531 whole entry partner): as the sequence (Q16531 whole entry partner) above
T5 sequence (P48729 whole entry): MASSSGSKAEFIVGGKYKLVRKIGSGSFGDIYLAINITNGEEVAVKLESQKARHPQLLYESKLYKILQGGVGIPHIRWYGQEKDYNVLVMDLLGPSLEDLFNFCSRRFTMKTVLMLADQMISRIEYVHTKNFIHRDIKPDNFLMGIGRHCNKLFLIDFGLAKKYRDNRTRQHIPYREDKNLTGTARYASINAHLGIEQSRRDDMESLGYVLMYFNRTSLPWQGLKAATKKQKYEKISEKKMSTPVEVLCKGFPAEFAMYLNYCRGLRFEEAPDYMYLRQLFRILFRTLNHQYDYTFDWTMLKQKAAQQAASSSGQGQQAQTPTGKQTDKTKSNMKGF
T5 sequence (Q96SW2 whole entry): as the sequence (Q96SW2 whole entry) above
T5 sequence (Q16531 whole entry partner): as the sequence (Q16531 whole entry partner) above
T3 sequence (P30291 whole entry): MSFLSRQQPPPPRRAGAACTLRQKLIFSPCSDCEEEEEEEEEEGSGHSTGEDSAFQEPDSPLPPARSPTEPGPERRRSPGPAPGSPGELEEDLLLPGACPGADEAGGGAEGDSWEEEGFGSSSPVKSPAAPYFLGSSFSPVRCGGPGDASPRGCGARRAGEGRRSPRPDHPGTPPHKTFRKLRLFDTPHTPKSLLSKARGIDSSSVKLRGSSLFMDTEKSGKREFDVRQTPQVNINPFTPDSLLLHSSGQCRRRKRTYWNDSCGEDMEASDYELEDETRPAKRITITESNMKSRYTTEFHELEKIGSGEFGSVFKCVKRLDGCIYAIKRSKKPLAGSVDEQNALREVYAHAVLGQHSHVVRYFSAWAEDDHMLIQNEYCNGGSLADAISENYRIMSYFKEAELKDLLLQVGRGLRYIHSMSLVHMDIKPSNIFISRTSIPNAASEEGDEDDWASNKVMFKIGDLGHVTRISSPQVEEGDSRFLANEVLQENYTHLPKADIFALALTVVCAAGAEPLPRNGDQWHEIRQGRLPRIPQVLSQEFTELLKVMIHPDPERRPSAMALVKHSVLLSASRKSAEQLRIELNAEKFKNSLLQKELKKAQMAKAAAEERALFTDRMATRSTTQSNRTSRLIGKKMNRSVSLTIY
T3 sequence (Q96SW2 whole entry): as the sequence (Q96SW2 whole entry) above
T3 sequence (Q16531 whole entry partner): as the sequence (Q16531 whole entry partner) above
T1 sequence (Q96SW2 whole entry): as the sequence (Q96SW2 whole entry) above
T6 sequence (Q9UKS7 whole entry): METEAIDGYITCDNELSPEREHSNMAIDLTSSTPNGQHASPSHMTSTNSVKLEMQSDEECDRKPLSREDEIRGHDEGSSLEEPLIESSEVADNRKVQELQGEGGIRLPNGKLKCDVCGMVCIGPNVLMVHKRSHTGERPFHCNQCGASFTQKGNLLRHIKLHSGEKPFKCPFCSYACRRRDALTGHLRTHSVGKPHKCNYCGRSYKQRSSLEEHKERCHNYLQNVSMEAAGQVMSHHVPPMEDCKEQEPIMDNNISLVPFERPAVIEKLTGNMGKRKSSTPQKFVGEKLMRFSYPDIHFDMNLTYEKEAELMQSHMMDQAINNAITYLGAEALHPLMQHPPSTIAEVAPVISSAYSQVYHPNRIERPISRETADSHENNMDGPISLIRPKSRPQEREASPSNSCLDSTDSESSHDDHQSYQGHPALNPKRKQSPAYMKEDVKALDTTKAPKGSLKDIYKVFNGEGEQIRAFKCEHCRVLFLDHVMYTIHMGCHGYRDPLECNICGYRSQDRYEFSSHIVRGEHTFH
T6 sequence (Q96SW2 whole entry): as the sequence (Q96SW2 whole entry) above
T6 sequence (Q16531 whole entry partner): as the sequence (Q16531 whole entry partner) above

Question: For O=C1CCC(N2Cc3cc(CN4CCN(c5ccccc5)CC4)ccc3C2=S)C(=O)N1 (stereo not shown) [GT-08205, 3-(5-((4-phenylpiperazin-1-yl)methyl)-1-thioxoisoindolin-2-yl)piperidine-2,6-dione], which inhibition at 0.01 µM [1] is on record?
Answer: 0 to 5%

Question: What about the inhibition at 0.5 µM [1] of the same molecule?
Answer: 60 to 70%

Question: What about the inhibition at 0.01 µM [2] of the same molecule?
Answer: 5 to 10%

Question: What about the inhibition at 0.5 µM [2] of the same molecule?
Answer: 80 to 100%

Question: And the “GSPT1 substrate protein remaining %” value (GSPT1; [8])?
Answer: A (0% ≤ substrate protein remaining % ≤ 80%)

Question: What about the inhibition at 0.01 µM [3] of the same molecule?
Answer: 10 to 20%

Question: And the inhibition at 0.5 µM [3]?
Answer: 40 to 50%

Question: And the inhibition at 0.01 µM [4]?
Answer: 5 to 10%

Question: What about the inhibition at 0.5 µM [4] of the same molecule?
Answer: 30 to 40%

Question: What about the inhibition at 0.01 µM [5] of the same molecule?
Answer: 10 to 20%

Question: What about the inhibition at 0.5 µM [5] of the same molecule?
Answer: 60 to 70%

Question: And the inhibition at 0.5 µM [6]?
Answer: 60 to 80%

Question: What about the inhibition at 2 µM [6] of the same molecule?
Answer: 80 to 100%

Question: What about the “IKZF 1 substrate protein remaining %” value (IKZF1; [8]) of the same molecule?
Answer: B (80%< substrate protein remaining %≤ 100%)

Question: And the “Wee1 substrate protein remaining %” value (WEE1; [8])?
Answer: A (0% ≤ substrate protein remaining % ≤ 80%)

Question: What about the “IKZF3 substrate protein remaining %” value (IKZF3; [8]) of the same molecule?
Answer: A (0% ≤ substrate protein remaining % ≤ 80%)

Question: What about the “CK1α substrate protein remaining %” value (CK1α; [8]) of the same molecule?
Answer: B (80%< substrate protein remaining %≤ 100%)

Question: What about the “IKZF2 substrate protein remaining %” value (IKZF2; [8]) of the same molecule?
Answer: A (0% ≤ substrate protein remaining % ≤ 80%)

Question: What about the inhibition at 0.01 µM [7] of the same molecule?
Answer: 10 to 20%

Question: What about the “Inhibition Rate at 500 nM (%)” value ([7]; MM.1S, 500 nM, 96 hours) of the same molecule?
Answer: la8

Question: Which inhibition at 0.01 µM [1] does the source give for O=C1CCC(N2Cc3cc(CN4CCC(c5ccsc5)CC4)ccc3C2=S)C(=O)N1 (stereo not shown) [GT-08324, 3-(5-((4-(thiophen-3-yl)piperidin-1-yl)methyl)-1-thioxoisoindolin-2-yl)piperidine-2,6-dione] here?
Answer: 10 to 20%

Question: What about the inhibition at 0.5 µM [1] of the same molecule?
Answer: 80 to 100%

Question: What about the inhibition at 0.01 µM [2] of the same molecule?
Answer: 30 to 40%

Question: What about the inhibition at 0.5 µM [2] of the same molecule?
Answer: 80 to 100%

Question: And the “GSPT1 substrate protein remaining %” value (GSPT1; [9])?
Answer: A (0% ≤ substrate protein remaining % ≤ 80%)

Question: What about the inhibition at 0.01 µM [3] of the same molecule?
Answer: 0 to 5%

Question: And the inhibition at 0.5 µM [3]?
Answer: 60 to 70%

Question: And the inhibition at 0.01 µM [4]?
Answer: -5 to 0%

Question: What about the inhibition at 0.5 µM [4] of the same molecule?
Answer: 40 to 50%

Question: And the inhibition at 0.01 µM [5]?
Answer: 5 to 10%

Question: And the inhibition at 0.5 µM [5]?
Answer: 80 to 100%

Question: And the inhibition at 0.5 µM [6]?
Answer: 60 to 80%

Question: And the inhibition at 2 µM [6]?
Answer: 80 to 100%

Question: What about the “IKZF 1 substrate protein remaining %” value (IKZF1; [9]) of the same molecule?
Answer: A (0% ≤ substrate protein remaining % ≤ 80%)

Question: What about the “Wee1 substrate protein remaining %” value (WEE1; [9]) of the same molecule?
Answer: A (0% ≤ substrate protein remaining % ≤ 80%)

Question: What about the “IKZF3 substrate protein remaining %” value (IKZF3; [9]) of the same molecule?
Answer: B (80%< substrate protein remaining %≤ 100%)

Question: What about the “CK1α substrate protein remaining %” value (CK1α; [9]) of the same molecule?
Answer: A (0% ≤ substrate protein remaining % ≤ 80%)

Question: What about the “IKZF2 substrate protein remaining %” value (IKZF2; [9]) of the same molecule?
Answer: A (0% ≤ substrate protein remaining % ≤ 80%)

Question: What about the inhibition at 0.01 µM [7] of the same molecule?
Answer: 20 to 30%

Question: And the inhibition at 0.5 µM [7]?
Answer: 80 to 100%

Question: For Cc1ccc(Sc2ccccc2N2CCN(Cc3cccc4c3CN(C3CCC(=O)NC3=O)C4=S)CC2)c(C)c1 (stereo not shown) [GT-08332, 3-(4-((4-(2-((2,4-dimethylphenyl)thio)phenyl)piperazin-1-yl)methyl)-1-thioxoisoindolin-2-yl)piperidine-2,6-dione], which inhibition at 0.01 µM [1] is on record?
Answer: -5 to 0%

Question: What about the inhibition at 0.5 µM [1] of the same molecule?
Answer: 80 to 100%

Question: What about the inhibition at 0.01 µM [2] of the same molecule?
Answer: -5 to 0%

Question: What about the inhibition at 0.5 µM [2] of the same molecule?
Answer: 60 to 80%

Question: What about the “GSPT1 substrate protein remaining %” value (GSPT1; [9]) of the same molecule?
Answer: A (0% ≤ substrate protein remaining % ≤ 80%)

Question: And the inhibition at 0.01 µM [3]?
Answer: -5 to 0%

Question: And the inhibition at 0.5 µM [3]?
Answer: 80 to 100%

Question: And the inhibition at 0.01 µM [4]?
Answer: 0 to 5%

Question: What about the inhibition at 0.5 µM [4] of the same molecule?
Answer: 80 to 100%

Question: And the inhibition at 0.01 µM [5]?
Answer: -5 to 0%

Question: What about the inhibition at 0.5 µM [5] of the same molecule?
Answer: 80 to 100%

Question: What about the “IKZF 1 substrate protein remaining %” value (IKZF1; [9]) of the same molecule?
Answer: A (0% ≤ substrate protein remaining % ≤ 80%)

Question: And the “Wee1 substrate protein remaining %” value (WEE1; [9])?
Answer: A (0% ≤ substrate protein remaining % ≤ 80%)

Question: And the “IKZF3 substrate protein remaining %” value (IKZF3; [9])?
Answer: B (80%< substrate protein remaining %≤ 100%)

Question: And the “CK1α substrate protein remaining %” value (CK1α; [9])?
Answer: A (0% ≤ substrate protein remaining % ≤ 80%)

Question: What about the “IKZF2 substrate protein remaining %” value (IKZF2; [9]) of the same molecule?
Answer: A (0% ≤ substrate protein remaining % ≤ 80%)

Question: And the inhibition at 0.01 µM [7]?
Answer: 10 to 20%

Question: What about the inhibition at 0.5 µM [7] of the same molecule?
Answer: 80 to 100%
